Results: ChEMBL document CHEMBL4028808, “Design and synthesis of selective CDK8/19 dual inhibitors: Discovery of 4,5-dihydrothieno[3',4':3,4]benzo[1,2-d]isothiazole derivatives” (Bioorg Med Chem, 2017)
In brackets after ≈: the same amount, converted by molar mass.

Experiments:
CDK8/Cyclin C [1] = molecular target: T1, CDK8/Cyclin C (Homo sapiens, UniProt P49336); test: Inhibition of kinase tracer-236 binding to GST-tagged CDK8/CyclinC (unknown origin) after 60 mins by TR-FRET assay; assay type: protein-complex assay
[2] = molecular target: Cyclin-C/Cyclin-dependent kinase 19 (Homo sapiens, UniProt Q9BWU1); test: Inhibition of kinase tracer-236 binding to GST-tagged CDK19/CyclinC (unknown origin) after 60 mins by TR-FRET assay; assay type: protein-complex assay
[3] = molecular target: Cyclin-dependent kinase 8 (Homo sapiens, UniProt P49336); test: Inhibition of CDK8 in human SW480 cells assessed as decrease in STAT1 phosphorylation at Ser727 after 2 hrs by Western blot method
[4] = Intrinsic clearance in human liver microsomes at 1 umol/l after 15 to 30 mins in presence of NADPH by LC-MS/MS analysis; assay type: ADME, microsome; details: read-out: CLH
CDK8/Cyclin C [5] = molecular target: T1, CDK8/Cyclin C; test: Inhibition of full length recombinant human His-tagged CDK8/Cyclin C expressed in baculovirus expression system using Ulight-GS peptide as substrate measured after 30 mins by TR-FRET based LANCE assay
[6] = Aqueous solubility of the compound in DMSO at pH 6.8 by HPLC method; assay type: physicochemical

Chain of Cyclin-C/Cyclin-dependent kinase 19 (Q9BWU1 whole entry): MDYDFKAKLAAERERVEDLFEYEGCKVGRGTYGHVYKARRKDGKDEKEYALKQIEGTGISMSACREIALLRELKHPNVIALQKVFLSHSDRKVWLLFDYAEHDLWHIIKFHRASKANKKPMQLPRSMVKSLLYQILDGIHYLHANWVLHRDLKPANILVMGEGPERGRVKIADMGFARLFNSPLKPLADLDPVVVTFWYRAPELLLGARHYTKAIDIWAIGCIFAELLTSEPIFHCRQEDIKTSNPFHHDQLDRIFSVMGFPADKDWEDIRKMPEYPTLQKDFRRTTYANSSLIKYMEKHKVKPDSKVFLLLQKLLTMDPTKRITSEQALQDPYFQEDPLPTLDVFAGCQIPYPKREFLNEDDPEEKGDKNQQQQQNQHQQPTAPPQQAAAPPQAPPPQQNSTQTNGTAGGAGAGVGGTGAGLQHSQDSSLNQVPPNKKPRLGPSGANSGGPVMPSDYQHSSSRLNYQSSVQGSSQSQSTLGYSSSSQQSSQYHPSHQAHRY
Chain of Cyclin-C/Cyclin-dependent kinase 19 (P24863 whole entry, further chain): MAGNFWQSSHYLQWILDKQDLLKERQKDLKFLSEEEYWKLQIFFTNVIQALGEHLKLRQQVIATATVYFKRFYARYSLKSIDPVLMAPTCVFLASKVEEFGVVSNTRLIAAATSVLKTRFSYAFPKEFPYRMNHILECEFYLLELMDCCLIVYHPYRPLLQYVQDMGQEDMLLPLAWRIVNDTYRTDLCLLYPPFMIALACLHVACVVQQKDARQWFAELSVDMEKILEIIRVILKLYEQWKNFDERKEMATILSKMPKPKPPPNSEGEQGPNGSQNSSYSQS
T1 sequence (P49336 whole entry): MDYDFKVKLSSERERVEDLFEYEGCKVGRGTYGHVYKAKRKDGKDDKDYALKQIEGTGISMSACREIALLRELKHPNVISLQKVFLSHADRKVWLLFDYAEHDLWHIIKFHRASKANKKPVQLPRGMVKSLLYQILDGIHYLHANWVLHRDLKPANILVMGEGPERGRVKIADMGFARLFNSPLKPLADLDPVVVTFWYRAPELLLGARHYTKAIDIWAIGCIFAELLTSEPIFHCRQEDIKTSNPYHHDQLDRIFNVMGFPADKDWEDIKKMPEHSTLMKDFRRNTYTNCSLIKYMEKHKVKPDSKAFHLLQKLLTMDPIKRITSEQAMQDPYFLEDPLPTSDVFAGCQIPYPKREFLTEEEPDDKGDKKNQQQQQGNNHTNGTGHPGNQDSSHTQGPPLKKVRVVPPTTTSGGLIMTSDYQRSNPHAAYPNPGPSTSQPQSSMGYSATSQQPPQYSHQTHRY
T1 sequence (P24863 whole entry, further chain): as the sequence (P24863 whole entry, further chain) above
Chain of Cyclin-dependent kinase 8 (P49336 whole entry): as the sequence (P49336 whole entry) above

Structure (SMILES)	IC50 (CDK8/Cyclin C [1])	IC50 [2]	EC50 [3]	microsomal CLint at 1 µM [4]	IC50 (CDK8/Cyclin C [5])	solubility [6]
CSc1sc(C(N)=O)c2c1-c1snnc1CC2	60 nM	130 nM	550 nM	–	–	–
CN(C)C(=O)c1ccc(Oc2sc(C(N)=O)c3c2-c2sncc2CC3)cn1	23 nM	21 nM	21 nM	36 µL/min/mg	–	65 µg/mL (≈ 162 µM)
CSc1sc(C(=O)O)c2c1-c1sncc1CC2	9.5 nM	12 nM	> 10000 nM	–	–	–
CC(=O)Nc1ccc(Oc2sc(C(N)=O)c3c2-c2sncc2CC3)cn1	0.57 nM	0.57 nM	0.4 nM	61 µL/min/mg	–	0.72 µg/mL (≈ 1.86 µM)
NC(=O)c1sc(Oc2ccccn2)c2c1CCc1cnsc1-2	11 nM	25 nM	66 nM	101 µL/min/mg	–	–
COc1sc(C(N)=O)c2c1-c1sncc1CC2	2.3 nM	2.8 nM	9.1 nM	–	–	–
CCOCCNC(=O)c1ccc(Oc2sc(C(N)=O)c3c2-c2sncc2CC3)cn1	1.1 nM	1.9 nM	1.5 nM	73 µL/min/mg	–	15 µg/mL (≈ 33.7 µM)
CC(C)(O)CNC(=O)c1ccc(Oc2sc(C(N)=O)c3c2-c2sncc2CC3)cn1	2.4 nM	2.4 nM	7.4 nM	21 µL/min/mg	–	56 µg/mL (≈ 126 µM)
Cc1ccc(Oc2sc(C(N)=O)c3c2-c2sncc2CC3)cn1	0.99 nM	1.3 nM	3 nM	75 µL/min/mg	–	23 µg/mL (≈ 67 µM)
CSc1sc(C(=O)N(C)C)c2c1-c1sncc1CC2	68 nM	120 nM	1700 nM	–	–	–
CSc1sc(C(N)=O)c2c1-c1nn(C)cc1CC2	> 10000 nM	–	> 10000 nM	–	–	–
C[S+]([O-])c1sc(C(N)=O)c2c1-c1sncc1CC2 (stereo not given)	88 nM	150 nM	70 nM	–	–	–
Cc1c(Oc2sc(C(N)=O)c3c2-c2sncc2CC3)ccc[n+]1[O-]	4.4 nM	9.3 nM	8.3 nM	–	–	–
NC(=O)c1ccc(Oc2sc(C(N)=O)c3c2-c2sncc2CC3)cn1	0.93 nM	0.97 nM	1.4 nM	19 µL/min/mg	–	4.1 µg/mL (≈ 11 µM)
NC(=O)c1sc(Oc2ccc(N)nc2)c2c1CCc1cnsc1-2	0.6 nM	1.1 nM	2.3 nM	30 µL/min/mg	–	4.5 µg/mL (≈ 13.1 µM)
Cc1ncccc1Oc1sc(C(N)=O)c2c1-c1sncc1CC2	0.47 nM	0.77 nM	2 nM	86 µL/min/mg	–	–
CSc1sc(C(=O)Nc2ccn(C)n2)c2c1-c1sncc1CC2	22 nM	65 nM	1400 nM	–	–	–
CSc1sc(C(N)=O)c2c1-c1[nH]ncc1CC2	1700 nM	3100 nM	1300 nM	–	–	–
CSc1sc(C(=O)Nc2ccon2)c2c1-c1sncc1CC2	12 nM	15 nM	890 nM	–	–	–
CNC(=O)c1ccc(Oc2sc(C(N)=O)c3c2-c2sncc2CC3)cn1	1.9 nM	1 nM	2.6 nM	23 µL/min/mg	–	11 µg/mL (≈ 28.5 µM)
CSc1sc(C#N)c2c1-c1sncc1CC2	23 nM	46 nM	490 nM	–	–	–
COCCNC(=O)c1ccc(Oc2sc(C(N)=O)c3c2-c2sncc2CC3)c(C)n1	1.4 nM	1.3 nM	0.35 nM	71 µL/min/mg	–	6.7 µg/mL (≈ 15.1 µM)

Further lines, results first:

IC50 (CDK8/Cyclin C [1])	IC50 [2]	EC50 [3]	microsomal CLint at 1 µM [4]	IC50 (CDK8/Cyclin C [5])	solubility [6]	Structure (SMILES)
180 nM	400 nM	2800 nM	–	–	–	CSc1sc(C(=O)Nc2ccccn2)c2c1-c1sncc1CC2
1.5 nM	2.7 nM	3 nM	55 µL/min/mg	–	–	NC(=O)c1sc(Oc2cccnc2)c2c1CCc1cnsc1-2
–	–	–	–	7 nM	–	NC(=O)c1[nH]cc(-c2ccncc2)c1Cl
540 nM	700 nM	> 10000 nM	–	–	–	CSc1sc(C(=O)Nc2ccccc2)c2c1-c1sncc1CC2
66 nM	93 nM	620 nM	–	–	–	CSc1sc(C(=O)Nc2ccsn2)c2c1-c1sncc1CC2
4.7 nM	6.6 nM	16 nM	65 µL/min/mg	–	–	Cc1ccncc1Oc1sc(C(N)=O)c2c1-c1sncc1CC2
9.3 nM	22 nM	140 nM	–	–	–	CNC(=O)c1sc(SC)c2c1CCc1cnsc1-2
0.59 nM	0.36 nM	0.58 nM	127 µL/min/mg	–	4 µg/mL (≈ 11.2 µM)	CNc1ccc(Oc2sc(C(N)=O)c3c2-c2sncc2CC3)cn1
18 nM	19 nM	25 nM	–	–	–	CSc1sc(C(N)=O)c2c1-c1c(cnn1C)CC2
–	–	–	–	0.2 nM	–	OC[C@H](Nc1cncc(-c2ccc(O)c(Cl)c2)n1)c1ccccc1
0.34 nM	0.55 nM	0.77 nM	193 µL/min/mg	–	–	NC(=O)c1sc(Oc2ccccc2)c2c1CCc1cnsc1-2
–	–	–	–	0.4 nM	–	OC[C@H](Nc1cncc(-c2ccc3[nH]ncc3c2)c1)c1ccccc1
63 nM	110 nM	220 nM	–	–	–	CS(=O)(=O)c1sc(C(N)=O)c2c1-c1sncc1CC2
45 nM	71 nM	200 nM	–	–	–	CSc1sc(C(N)=O)c2c1-c1oncc1CC2
5.1 nM	9.2 nM	28 nM	188 µL/min/mg	–	–	Cc1cncc(Oc2sc(C(N)=O)c3c2-c2sncc2CC3)c1
